Results taken from paper PMC5291411, “Cytotoxic conjugates of betulinic acid and substituted triazoles prepared by Huisgen Cycloaddition from 30-azidoderivatives” (PLoS ONE, 2017).

Assays:
Format in all cases: cell-based
HCT116p53-/- = assay: Cytotoxic MTS assay, HCT116p53-/-; conditions: Homo sapiens, 72 h, p53 knock-down colorectal tumor
Source text: (§1) Cytotoxic activity of all synthesized compounds was investigated in vitro against eight human cancer cell lines and two non-tumor fibroblasts using the standard MTS test (Table 1). The cancer cell lines were derived from T-lymphoblastic leukemia CCRF-CEM, leukemia K562 and their multiresistant counterparts expressing P-glycoprotein, MRP1 and LRP proteins (CEM-DNR, K562-TAX), solid tumors including lung (A549) and colon (HCT116, HCT116p53-/-) carcinomas, osteosarcoma cell line (U2OS), and for comparison, tests were performed on two human non-cancer fibroblast cell lines (BJ, MRC-5).
(§2) Biological assays were performed in concordance with our previous publications [[29], [58]; [60]; [61]]. All cells (if not indicated otherwise) were purchased from the American Tissue Culture Collection (ATCC). The CCRF-CEM line is derived from T lymphoblastic leukemia, evincing high chemosenzitivity, K562 represent cells from an acute myeloid leukemia patient sample with bcr-abl translocation, U2OS line is derived from osteosarcoma, HCT116 is colorectal tumor cell line and its p53 gene knock-down counterpart (HCT116p53-/-, Horizon Discovery Ltd, UK) is a model of human cancers with p53 mutation frequently associated with poor prognosis, A549 line is lung adenocarcinoma. The daunorubicin resistant subline of CCRF-CEM cells (CEM-DNR bulk) and paclitaxel resistant subline K562-TAX were selected in our laboratory by the cultivation of maternal cell lines in increasing concentrations of daunorubicine or paclitaxel, respectively. The CEM-DNR bulk cells overexpress MRP-1 and P-glycoprotein protein, while K562-TAX cells overexpress P-glycoprotein only. Both proteins belong to the family of ABC transporters and are involved in the primary and/or acquired multidrug resistance phenomenon. MRC-5 and BJ cell lines were used as a non-tumor control and represent human fibroblasts. The cells were maintained in nunc/corning 80 cm^2 plastic tissue culture flasks and cultured in cell culture medium according to ATCC or Horizon recommendations (DMEM/RPMI 1640 with 5 g/L glucose, 2 mM glutamine, 100 U/mL penicillin, […] streptomycin, 10% fetal calf serum, and NaHCO3).
(§3) MTS assay was performed at Institute of Molecular and Translational Medicine by robotic platform (HighResBiosolutions). Cell suspensions were prepared and diluted according to the particular cell type and the expected target cell density (25000–35000 cells/mL based on cell growth characteristics). Cells were added by automatic pipetor (30 μL) into 384 well microtiter plates. All tested compounds were dissolved in 100% DMSO and four-fold dilutions of the intended test concentration were added in 0.15 μL aliquots at time zero to the microtiter plate wells by the echoacustic non-contact liquid handler Echo550 (Labcyte). The experiments were performed in technical duplicates and three biological replicates at least. The cells were incubated with the tested compounds for 72 h at 37°C, in a 5% CO2 atmosphere at 100% humidity. At the end of the incubation period, the cells were assayed by using the MTS test. Aliquots (5 μL) of the MTS stock solution were pipetted into each well and incubated for additional 1–4 h. After this incubation period, the optical density (OD) was measured at 490 nm with an Envision reader (Perkin Elmer). Tumor cell survival (TCS) was calculated by using the following equation: TCS = (ODdrug-exposed well/mean ODcontrol wells) × 100%. The IC50 value, the drug concentration that is lethal to 50% of the tumor cells, was calculated from the appropriate dose-response curves in Dotmatics software.

CCRF-CEM = assay: Cytotoxic MTS assay, CCRF-CEM; conditions: Homo sapiens, 72 h, T-lymphoblastic leukemia
Source text: as §1, §2, §3

A549 = assay: Cytotoxic MTS assay, A549; conditions: Homo sapiens, 72 h, lung adenocarcinoma
Source text: as §1, §2, §3

MRC-5 = assay: Cytotoxic MTS assay, MRC-5 fibroblasts; conditions: Homo sapiens, MRC5, 72 h, non-tumor fibroblasts
Source text: as §1, §2, §3

CEM-DNR = assay: Cytotoxic MTS assay, CEM-DNR; conditions: Homo sapiens, 72 h, daunorubicin resistant subline of CCRF-CEM
Source text: as §1, §2, §3

BJ = assay: Cytotoxic MTS assay, BJ fibroblasts; conditions: Homo sapiens, 72 h, non-tumor fibroblasts
Source text: as §1, §2, §3

K562 = assay: Cytotoxic MTS assay, K562; conditions: Homo sapiens, 72 h, leukemia
Source text: as §1, §2, §3

HCT116 = assay: Cytotoxic MTS assay, HCT116; conditions: Homo sapiens, HCT-116, 72 h, colorectal tumor
Source text: as §1, §2, §3

U2OS = assay: Cytotoxic MTS assay, U2OS; conditions: Homo sapiens, 72 h, osteosarcoma
Source text: as §1, §2, §3

K562-TAX = assay: Cytotoxic MTS assay, K562-TAX; conditions: Homo sapiens, 72 h, paclitaxel resistant subline of K562
Source text: as §1, §2, §3

Row | Structure (SMILES) | IC50 (HCT116p53-/-) [µM] | IC50 (CCRF-CEM) [µM] | IC50 (A549) [µM] | IC50 (MRC-5) [µM] | IC50 (CEM-DNR) [µM] | IC50 (BJ) [µM] | IC50 (K562) [µM] | IC50 (HCT116) [µM] | IC50 (U2OS) [µM] | IC50 (K562-TAX) [µM]
1 | C=C(CN=[N+]=[N-])[C@@H]1CC[C@]2(C(=O)O)CC[C@]3(C)C(CCC4[C@@]5(C)CC[C@H](O)C(C)(C)C5CC[C@]43C)C12 (stereo partly drawn) [Compound 8, 30-azidobetulinic acid] | 24 | 21.7 | 23 | 19.1 | 25.8 | 34 | 17.2 | 25.5 | 25 | 23.9
2 | C=C(Cn1cc(C2CCCC2)nn1)[C@@H]1CC[C@]2(C(=O)O)CC[C@]3(C)C(CCC4[C@@]5(C)CC[C@H](O)C(C)(C)C5CC[C@]43C)C12 (stereo partly drawn) [Compound 11g] | > 50 | 16.7 | > 50 | > 50 | 38 | > 50 | > 50 | 33.5 | > 50 | 23.3
3 | C=C(Cn1cc(-c2ccc(N(C)C)cc2)nn1)[C@@H]1CC[C@]2(C(=O)O)CC[C@]3(C)C(CCC4[C@@]5(C)CC[C@H](OC(C)=O)C(C)(C)C5CC[C@]43C)C12 (stereo partly drawn) [Compound 9e] | 33.1 | 19.4 | 26.6 | 30.3 | 29.6 | 35.1 | 35.4 | 32.9 | 31 | 30
4 | C=C(Cn1cc(-c2cccnc2)nn1)[C@@H]1CC[C@]2(C(=O)O)CC[C@]3(C)C(CCC4[C@@]5(C)CC[C@H](OC(C)=O)C(C)(C)C5CC[C@]43C)C12 (stereo partly drawn) [Compound 9d] | 18.7 | 14.9 | 11.3 | 28.2 | 12 | 29.9 | 13.3 | 19.2 | 17.3 | 11.2
5 | C=C(Cn1cc(-c2ccccn2)nn1)[C@@H]1CC[C@]2(C(=O)O)CC[C@]3(C)C(CCC4[C@@]5(C)CC[C@H](O)C(C)(C)C5CC[C@]43C)C12 (stereo partly drawn) [Compound 11c] | > 50 | 14.4 | > 50 | > 50 | 8.5 | > 50 | > 50 | > 50 | > 50 | 7.2
6 | C=C(Cn1cc(-c2ccc(C(C)(C)C)cc2)nn1)[C@@H]1CC[C@]2(C(=O)O)CC[C@]3(C)C(CCC4[C@@]5(C)CC[C@H](O)C(C)(C)C5CC[C@]43C)C12 (stereo partly drawn) [Compound 11f] | > 50 | > 50 | > 50 | > 50 | 13.7 | > 50 | > 50 | 36.7 | > 50 | 16
7 | C=C(Cn1cc(C2CCCC2)nn1)[C@@H]1CC[C@]2(C(=O)O)CC[C@]3(C)C(CCC4[C@@]5(C)CC[C@H](OC(C)=O)C(C)(C)C5CC[C@]43C)C12 (stereo partly drawn) [Compound 9g] | 47.6 | 26.2 | > 50 | > 50 | 30.8 | > 50 | 43.6 | 38.3 | 44.1 | 29.1
8 | C=C(Cn1cc(-c2ccccc2)nn1)[C@@H]1CC[C@]2(C(=O)O)CC[C@]3(C)C(CCC4[C@@]5(C)CC[C@H](O)C(C)(C)C5CC[C@]43C)C12 (stereo partly drawn) [Compound 11a] | > 50 | 16.6 | > 50 | > 50 | 23.8 | > 50 | > 50 | > 50 | > 50 | 23.3
9 | C=C(C)[C@@H]1CC[C@]2(C(=O)O)CC[C@]3(C)[C@H](CC[C@@H]4[C@@]5(C)CC[C@H](O)C(C)(C)[C@@H]5CC[C@]43C)[C@@H]12 [Compound 1, betulinic acid] | > 50 | 45.5 | 43.4 | 32.9 | 45.4 | 37.6 | 40 | 38 | > 50 | 43.1
10 | C=C(Cn1cc(-c2ccc(C(C)(C)C)cc2)nn1)[C@@H]1CC[C@]2(C(=O)O)CC[C@]3(C)C(CCC4[C@@]5(C)CC[C@H](OC(C)=O)C(C)(C)C5CC[C@]43C)C12 (stereo partly drawn) [Compound 9f] | 48.4 | 34.5 | 45 | > 50 | 15 | > 50 | 15.6 | 41.9 | 45.8 | 23.4
11 | C=C(Cn1cc(-c2ccccc2)nn1)[C@@H]1CC[C@]2(C(=O)O)CC[C@]3(C)C(CCC4[C@@]5(C)CC[C@H](OC(C)=O)C(C)(C)C5CC[C@]43C)C12 (stereo partly drawn) [Compound 9a] | 31.1 | 13.4 | 23.4 | 32.4 | 19.5 | > 50 | 15.1 | 25.1 | 24.8 | 19.1
12 | C=C(Cn1cc(CN)nn1)[C@@H]1CC[C@]2(C(=O)O)CC[C@]3(C)C(CCC4[C@@]5(C)CC[C@H](OC(C)=O)C(C)(C)C5CC[C@]43C)C12 (stereo partly drawn) [Compound 9h] | > 50 | 20.2 | 30.5 | > 50 | 28.3 | > 50 | > 50 | 32 | 30.6 | > 50
